# Results from patent publication US8362017B2, “C-kit modulators and methods of use” (Exelixis, Inc., priority 2003, dated 2013).
# pIC50: −log10 of the molar value.
# Molecular target: c-Kit kinase (Homo sapiens, UniProt P10721)
# Test: c-Kit biochemical activity assay (AlphaScreen)
# Conditions: biotinylated poly(Glu, Tyr) substrate, 1 hr at ambient temperature
# Description: Kinase activity and compound inhibition are investigated using one or more of the three assay formats described below. The ATP concentrations for each assay are selected to be close to the Michaelis-Menten constant (KM) for each individual kinase. Dose-response experiments are performed at 10 different inhibitor concentrations in a 384-well plate format. The data are fitted to four-parameter equation (2) below; where Y is the observed signal, X is the inhibitor concentration, Min is the background signal in the absence of enzyme (0% enzyme activity), Max is the signal in the absence of inhibitor (100% enzyme activity), IC50 is the inhibitor concentration at 50% enzyme inhibition and H represents the empirical Hill's slope to measure the cooperativity. Typically H is close to unity. Y=Min+(Max−Min)/(1+(X/IC50)^H) Equation (2) c-Kit Assay
# c-Kit biochemical activity was assessed using AlphaScreen™ (Perldn Elmer) technology, described above. Test compounds, ATP, biotinylated poly(Glu, Tyr) and c-Kit kinase were combined in a volume of 20 μL in a 384-well white, medium binding microtiter plate (Greiner). Reaction mixtures were incubated for 1 hr at ambient temperature. Reactions were quenched by addition of 10 μL of 15-30 mg/mL AlphaScreen bead suspension containing 75 mM Hepes, pH 7.4, 300 mM NaCl, 120 mM EDTA, 0.3% BSA and 0.03% Tween-20. After 16 hr incubation at ambient temperature plates were read using an AlphaQuest reader (Perkin Elmer).
# c-Kit kinase, sequence (P10721 26-976): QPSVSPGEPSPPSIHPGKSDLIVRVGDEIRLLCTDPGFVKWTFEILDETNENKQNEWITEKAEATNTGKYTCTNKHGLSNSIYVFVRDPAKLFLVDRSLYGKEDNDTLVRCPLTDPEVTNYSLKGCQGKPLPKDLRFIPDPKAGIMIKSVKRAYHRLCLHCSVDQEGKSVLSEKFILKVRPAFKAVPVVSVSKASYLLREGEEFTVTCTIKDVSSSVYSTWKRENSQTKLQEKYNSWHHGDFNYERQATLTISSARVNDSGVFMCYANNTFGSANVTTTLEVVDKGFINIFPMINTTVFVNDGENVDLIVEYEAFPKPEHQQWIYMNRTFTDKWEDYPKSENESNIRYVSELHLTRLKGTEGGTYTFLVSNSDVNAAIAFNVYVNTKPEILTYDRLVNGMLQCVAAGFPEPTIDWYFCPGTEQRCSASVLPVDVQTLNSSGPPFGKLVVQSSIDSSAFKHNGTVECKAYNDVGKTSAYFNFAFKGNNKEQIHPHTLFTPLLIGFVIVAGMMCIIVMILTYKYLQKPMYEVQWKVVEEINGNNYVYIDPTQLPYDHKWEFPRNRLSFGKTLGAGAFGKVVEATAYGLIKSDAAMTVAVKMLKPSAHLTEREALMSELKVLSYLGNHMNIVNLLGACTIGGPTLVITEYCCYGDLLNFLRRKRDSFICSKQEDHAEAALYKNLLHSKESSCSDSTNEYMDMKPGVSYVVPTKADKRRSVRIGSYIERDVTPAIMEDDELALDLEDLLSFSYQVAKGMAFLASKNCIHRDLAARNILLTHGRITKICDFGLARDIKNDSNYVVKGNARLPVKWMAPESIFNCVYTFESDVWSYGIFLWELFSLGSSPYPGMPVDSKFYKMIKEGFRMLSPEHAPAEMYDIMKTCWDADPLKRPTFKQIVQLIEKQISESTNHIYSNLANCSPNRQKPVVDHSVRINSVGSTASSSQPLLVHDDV
row,SMILES,pIC50
1,"O=C(Nc1ccc(Cl)c(C(F)(F)F)c1)OCc1cccc(-c2cccnc2)n1 [Example 261, 2,3′-bipyridin-6-ylmethyl [4-chloro-3-(trifluoromethyl)phenyl]carbamate]",5.30 to 6.30
2,"O=C(Nc1ccc(Cl)c(C(F)(F)F)c1)OCc1cccc(-c2cncnc2)n1 [Example 262, (6-pyrimidin-5-ylpyridin-2-yl)methyl [4-chloro-3-(trifluoromethyl)phenyl]carbamate]",5.30 to 6.30
3,"O=C(NCc1cccc(-c2cncc3ccccc23)c1)Nc1ccc(Cl)c(C(F)(F)F)c1 [Example 263, N-[4-chloro-3-(trifluoromethyl)phenyl]-N′-[(3-isoquinolin-4-ylphenyl)methyl]urea]",5.30 to 6.30
4,"O=C(NCc1ccc(-c2cncc3ccccc23)cc1)Nc1ccc(Cl)c(C(F)(F)F)c1 [Example 264, N-[4-chloro-3-(trifluoromethyl)phenyl]-N′-[(4-isoquinolin-4-ylphenyl)methyl]urea]",5.30 to 6.30
5,"O=C(Nc1cc(C(F)(F)F)ccn1)OCc1cccc(-n2cnnn2)n1 [Example 265, [6-(1H-tetrazol-1-yl)pyridin-2-yl]methyl [4-(trifluoromethyl)pyridin-2-yl]carbamate]",6.30 to 7.30
6,"O=C(Nc1ccc(Cl)c(C(F)(F)F)c1)OCc1cccc(-c2cn[nH]c2)c1 [Example 266, [3-(1H-pyrazol-4-yl)phenyl]methyl [4-chloro-3-(trifluoromethyl)phenyl]carbamate]",> 7.30
7,"O=C(Nc1ccc(Cl)c(C(F)(F)F)c1)OCc1ccc(-c2cn[nH]c2)cc1 [Example 267, [4-(1H-pyrazol-4-yl)phenyl]methyl [4-chloro-3-(trifluoromethyl)phenyl]carbamate]",5.30 to 6.30
